Test results as given in ChEMBL document CHEMBL4602687, “Dual Binding to Orthosteric and Allosteric Sites Enhances the Anticancer Activity of a TRAP1-Targeting Drug” (J Med Chem, 2020).
Residue numbers refer to the chain shown, from its start. Calls of active or inactive are those of the source. The calls are words filed in the database; no cut-off is given here.

Key:
[1] = biological target: T1, Heat shock protein 75 kDa, mitochondrial (Homo sapiens) (UniProt Q12931); assay: Allosteric modulation of recombinant wild-type human TRAP1 ATPase activity expressed in Escherichia coli BL21 (DE3) assessed as increase in substrate Km at 5 uM preincubated for 0.5 hrs followed by varying levels of ATP addition and measured after 3 hrs using PiColorLock Gold reagent by colorimetric assay-based Lineweaver-Burk plot analysis relative to control
T1 sequence (whole entry): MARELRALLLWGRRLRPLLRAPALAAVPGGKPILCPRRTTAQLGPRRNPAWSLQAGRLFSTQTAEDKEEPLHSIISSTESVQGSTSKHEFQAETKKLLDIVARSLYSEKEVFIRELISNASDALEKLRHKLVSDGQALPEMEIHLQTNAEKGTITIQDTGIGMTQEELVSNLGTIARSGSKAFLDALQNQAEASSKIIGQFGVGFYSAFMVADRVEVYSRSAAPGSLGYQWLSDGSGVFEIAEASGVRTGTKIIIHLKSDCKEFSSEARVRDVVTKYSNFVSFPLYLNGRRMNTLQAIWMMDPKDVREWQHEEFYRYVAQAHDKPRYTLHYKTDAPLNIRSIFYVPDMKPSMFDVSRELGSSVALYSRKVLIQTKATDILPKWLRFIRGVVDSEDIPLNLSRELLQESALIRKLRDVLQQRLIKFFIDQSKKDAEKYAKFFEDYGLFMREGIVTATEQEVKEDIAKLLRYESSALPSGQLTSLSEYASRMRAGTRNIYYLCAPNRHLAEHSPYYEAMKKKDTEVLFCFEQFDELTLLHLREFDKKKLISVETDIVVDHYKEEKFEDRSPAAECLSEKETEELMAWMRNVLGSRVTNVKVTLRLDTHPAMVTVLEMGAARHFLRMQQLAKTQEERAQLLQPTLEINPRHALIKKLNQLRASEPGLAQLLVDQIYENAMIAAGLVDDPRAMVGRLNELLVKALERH

[2] = system: T2, Heat shock protein 75 kDa, mitochondrial (Homo sapiens), Q12931 [E115K,R114E,E403K]; assay: Stimulation of recombinant […] human TRAP1 E115K/R114E/E403K mutant ATPase activity expressed in Escherichia coli BL21 (DE3) up to 20 uM preincubated for 0.5 hrs followed by ATP addition and measured after 3 hrs by PiColorLock Gold reagent based colorimetric assay
T2 sequence (whole entry): T1 sequence (whole entry) with R114E, E115K, E403K

[3] = system: T3, Heat shock protein 75 kDa, mitochondrial (Homo sapiens), Q12931 [R114E]; assay: Stimulation of recombinant […] human TRAP1 R114E mutant ATPase activity expressed in Escherichia coli BL21 (DE3) up to 20 uM preincubated for 0.5 hrs followed by ATP addition and measured after 3 hrs by PiColorLock Gold reagent based colorimetric assay
T3 sequence (whole entry): T1 sequence (whole entry) with R114E

[4] = biological target: T1, Heat shock protein 75 kDa, mitochondrial (Homo sapiens); assay: Inhibition of recombinant wild-type human TRAP1 chaperone activity expressed in Escherichia coli BL21 (DE3) at 5 uM preincubated for 30 mins followed by denatured luciferase and ATP addition by luciferase refolding assay
[5] = system: NCI-H460; assay: Antitumor activity against human NCI-H460 cells xenografted in nude mouse assessed as tumor growth inhibition at 5 mg/kg, ip administered daily; assay type: functional, organism-based
[6] = system: NCI-H460; assay: Cytotoxicity against human NCI-H460 cells assessed as reduction in cell viability up to 3 uM measured after 24 hrs by MTT assay; assay type: functional, cell-based
[7] = biological target: T1, Heat shock protein 75 kDa, mitochondrial (Homo sapiens); assay: Binding affinity to recombinant wild-type human TRAP1 ATP site expressed in Escherichia coli BL21 (DE3) assessed as induction of conformational change by measuring closed state population of TRAP1 at 10 uM measured after 30 mins in absence of ATP by TEM analysis (reference value: 52.1 +/- 0.6 %)
[8] = organism: Homo sapiens; assay: Inhibition of recombinant full-length human TRAP1 W585/W4F mutant expressed in Escherichia coli BL21 (DE3) assessed as intrinsic fluorescence quenching of tryptophan residues at 10 uM measured after 1 hr by fluorescence spectrophotometric method
[9] = biological target: T1, Heat shock protein 75 kDa, mitochondrial (Homo sapiens); assay: Inhibition of TRAP1 in human PC3 cells assessed as loss of mitochondrial membrane potential at 10 uM measured after 2 hrs by TMRM dye based flow cytometry; assay type: cell-based; conditions: PC-3
[10] = system: NCI-H460; assay: Antitumor activity against human NCI-H460 cells xenografted in nude mouse assessed as reduction in tumor cell proliferation at 5 mg/kg, ip administered daily by Ki67 staining based immunohistochemistry analysis; assay type: functional, organism-based

fold change (FC) [1]: 3
Activity [2]: inactive
Activity [3]: Active
inhibition [4]: Active
Activity [7]: 72.5%
inhibition [8]: Active
inhibition [9]: Active
Structure (SMILES): Nc1ncnc2c1nc(Sc1cc3c(cc1I)OCO3)n2CCCCCCCCCC[P+](c1ccccc1)(c1ccccc1)c1ccccc1
TGI [5]: Active
Activity [6]: Active
Activity [10]: Active
